Results reported in patent publication US12605330B2, “Screening method for offensive odor-suppressing material” (Takasago International Corporation, priority 2019, dated 2026).

How the values were obtained:
[1] = target: T1, human olfactory receptor OR4Q3 (Homo sapiens, UniProt Q8NH05); assay: Luciferase reporter gene assay, response of olfactory receptor OR4Q3 to odorous substance; assay type: cell-based; conditions: HEK293T cells expressing OR4Q3, various concentrations, 3 hours stimulation; FIGS. 2, 4, 5, 6
T1 construct: N-terminal 20 amino acid residues of bovine rhodopsin (Rho tag); expressed in transfected cells; host or cells: HEK293T cells, pME18S expression vector, co-transfected with RTP1S vector and luciferase reporters
T1 sequence (Q8NH05 1-313): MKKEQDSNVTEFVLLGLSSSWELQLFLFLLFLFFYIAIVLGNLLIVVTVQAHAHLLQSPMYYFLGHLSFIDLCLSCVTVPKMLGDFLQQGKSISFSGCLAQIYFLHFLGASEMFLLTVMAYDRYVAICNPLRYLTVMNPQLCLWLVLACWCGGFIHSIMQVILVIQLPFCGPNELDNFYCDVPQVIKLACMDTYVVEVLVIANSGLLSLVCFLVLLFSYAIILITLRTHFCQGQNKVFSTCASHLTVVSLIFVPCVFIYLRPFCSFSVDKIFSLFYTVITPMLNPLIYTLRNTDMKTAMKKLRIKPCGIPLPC
Protocol: (§1) Human olfactory receptor genes were obtained by PCR cloning with Human Genomic DNA: Female (Promega) on the basis of their sequence information registered in GenBank. Into pME18S vectors, the N-terminal 20 amino acid residues of bovine rhodopsin were integrated and the resulting human olfactory receptor genes were integrated respectively downstream thereof to obtain human olfactory receptor gene expression vectors.
(§2) Each human olfactory receptor gene expression vector (0.05 μg), RTP1S vector (0.01 μg), firefly luciferase vector pGL4.29 containing a cAMP response element promoter (Promega, 0.01 μg) and Renilla luciferase vector pGL4.74 containing a thymidine kinase promoter (Promega, 0.005 μg) were dissolved in 10 μL of Opti-MEMI (gibco) to give a gene solution (for one well). HEK293T cells were seeded in 100 μL volumes into 96-well plates (Biocoat, Corning) at a cell density reaching confluence after 24 hours, and the gene solutions were added to the respective wells to cause gene transfer into the cells by lipofection techniques in accordance with the usage of Lipofectamine 3000, followed by culture at 37° C. under a 5% carbon dioxide atmosphere for 24 hours.
(§3) After removal of the culture solutions, an odorous substance serving as an analyte, which had been prepared at a given concentration with CD293 (gibco) medium (supplemented with […] L-glutamine), was added in 50 μL volumes to stimulate the cells for 3 hours, followed by luciferase activity measurement in accordance with the usage of a Dual-Luciferase Reporter Assay System (Promega). The response intensity of each olfactory receptor polypeptide was expressed as a fold increase value, which was determined by dividing the luciferase activity generated upon stimulation with the odorous substance by the luciferase activity generated in a test system not containing the odorous substance.
(§4) The cells engineered to express human olfactory receptors OR2C1 and OR4Q3 were used to measure the response of these receptors to various concentrations of 1-octen-3-one by the luciferase reporter gene assay.

[2] = system: cells not engineered to express the olfactory receptors; assay: Mock test, luciferase reporter gene assay; assay type: cell-based, human
Protocol: as §2, §3, §4

[3] = target: T2, human olfactory receptor OR2C1 (Homo sapiens, UniProt O95371); assay: Luciferase reporter gene assay, response of olfactory receptor OR2C1 to odorous substance; assay type: cell-based; conditions: HEK293T cells expressing OR2C1, various concentrations, 3 hours stimulation; FIGS. 1 and 3
T2 construct: N-terminal 20 amino acid residues of bovine rhodopsin (Rho tag); expressed in transfected cells; host or cells: HEK293T cells, pME18S expression vector, co-transfected with RTP1S vector and luciferase reporters
T2 sequence (O95371 1-312): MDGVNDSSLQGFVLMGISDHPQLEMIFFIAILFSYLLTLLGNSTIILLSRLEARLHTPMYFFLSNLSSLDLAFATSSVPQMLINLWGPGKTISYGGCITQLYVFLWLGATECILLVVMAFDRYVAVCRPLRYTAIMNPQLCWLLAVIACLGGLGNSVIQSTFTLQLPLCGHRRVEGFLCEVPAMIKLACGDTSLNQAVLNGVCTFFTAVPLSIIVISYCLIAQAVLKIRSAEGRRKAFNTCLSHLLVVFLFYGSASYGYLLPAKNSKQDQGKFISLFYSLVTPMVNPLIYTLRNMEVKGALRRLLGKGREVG
Text: as §1, with “vectors. […]” for “vectors.”
as §3, with “substance. […]” for “substance.”

OR2C1 = target: T3, OR2C1 (Homo sapiens, UniProt O95371); assay: Suppressive effect of offensive odor-suppressing materials on the response of OR2C1 (luciferase reporter gene assay); assay type: cell-based; conditions: mixed at various concentrations with 30 μM 1-octen-3-one; FIGS. 7 and 8
T3 construct: N-terminal 20 amino acid residues of bovine rhodopsin (Rho tag); expressed in transfected cells; host or cells: HEK293T cells, pME18S expression vector, co-transfected with RTP1S vector and luciferase reporters
T3 sequence (O95371 1-312): T2 sequence (O95371 1-312)
Text: as §1, with “vectors. […]” for “vectors.”
as §3, with “substance. […]” for “substance.”

olfactory receptor OR2W1 = target: T4, olfactory receptor OR2W1 (Homo sapiens, UniProt Q9Y3N9); conditions: background art; cited from earlier work
T4 sequence (Q9Y3N9 1-320): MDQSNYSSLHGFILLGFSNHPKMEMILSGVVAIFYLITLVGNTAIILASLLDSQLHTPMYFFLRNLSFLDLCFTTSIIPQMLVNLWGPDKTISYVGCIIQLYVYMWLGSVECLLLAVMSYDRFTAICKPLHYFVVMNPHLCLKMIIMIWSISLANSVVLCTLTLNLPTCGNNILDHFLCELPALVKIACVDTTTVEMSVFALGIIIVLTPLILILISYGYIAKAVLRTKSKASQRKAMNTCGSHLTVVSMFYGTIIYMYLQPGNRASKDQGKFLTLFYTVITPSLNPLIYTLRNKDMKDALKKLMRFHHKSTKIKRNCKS

[4] = background art; cited from earlier work

SMILES: C=CC(O)CCCCC (stereo not drawn) [1-octen-3-ol]
- response of OR4Q3 to the odorous substance (fold increase value) [1]: respond to 1-octen-3-ol in a concentration-dependent manner
- response in Mock test [2]: no response was observed

SMILES: C=CC(=O)CC=CCC [1,5-octadien-3-one]
- response of OR2C1 to the odorous substance (fold increase value) [3]: respond to 1,5-octadien-3-one in a concentration-dependent manner
- response of OR4Q3 to the odorous substance (fold increase value) [1]: respond to 1,5-octadien-3-one in a concentration-dependent manner
- response in Mock test [2]: no response was observed

SMILES: CC(=CCC1CC=C(C)C1(C)C)CO (stereo not drawn) [2-methyl-4-(2,2,3-trimethylcyclopent-3-enyl)but-2-en-1-ol]
- suppressive effect on the response of OR2C1 to 1-octen-3-one (ratio of fold increase value, without material set to 100) (OR2C1): reducing the response of OR2C1 to 1-octen-3-one in a concentration-dependent manner

SMILES: C=CC(=O)CCCCC [1-octen-3-one]
- response of OR2C1 to the odorous substance (fold increase value) [3]: respond to 1-octen-3-one in a concentration-dependent manner
- response of OR4Q3 to the odorous substance (fold increase value) [1]: respond to 1-octen-3-one in a concentration-dependent manner
- response in Mock test [2]: no response was observed

SMILES: C=CC(O)CC=CCC (stereo not drawn) [1,5-octadien-3-ol]
- response of OR4Q3 to the odorous substance (fold increase value) [1]: respond to 1,5-octadien-3-ol in a concentration-dependent manner
- response in Mock test [2]: no response was observed

SMILES: CCCCCC(=O)O [hexanoic acid]
- response of OR2W1 to the odorous substance (olfactory receptor OR2W1): responds to hexanoic acid

SMILES: CC(C)c1cccc(C(C)CC=O)c1 (stereo not drawn) [florhydral]
- inhibition of the activity of OR2W1 (olfactory receptor OR2W1): inhibiting the activity of this OR2W1
- suppression of offensive odor induced by hexanoic acid in sensory testing [4]: suppress an offensive odor induced by hexanoic acid

SMILES: CCCC(O)CCC1C(C)CCCC1(C)C (stereo not drawn) [1-(2,2,6-trimethylcyclohexyl)hexan-3-ol]
- suppressive effect on the response of OR2C1 to 1-octen-3-one (ratio of fold increase value, without material set to 100) (OR2C1): reducing the response of OR2C1 to 1-octen-3-one in a concentration-dependent manner
